Results from patent US12116597B2, “Autophagy as a therapeutic target for intracranial aneurysm” (THE BOARD OF REGENTS OF THE UNIVERSITY OF TEXAS SYSTEM, priority 2022, dated 2024).

Test system: Thsd1-deficient zebrafish
Experiment: Intracranial hemorrhage incidence in thsd1-MO zebrafish embryos treated with autophagy inhibitors
Format: in vivo
Details: thsd1-MO injected zebrafish embryos; added to embryo water at 1 dpf for 24 hours; 3-MA 10 mM, wortmannin 50 nM, verteporfin 1 uM; FIG. 11
Description: Anti-sense morpholinos against thsd1, atg5 or talin was injected into one-cell stage zebrafish singly or in combination to silence the gene accordingly. At day 2 to day 3, embryos will be checked under regular optical microscope. Embryos with intracranial hemorrhages will be counted and imaged by Olympus microscope.
To test the hypothesis that autophagy inhibition could treat intracranial hemorrhage in-vivo 80-120 different zebrafish animals genetically engineered as described in Table 5 were treated with three distinct autophagy inhibitors, namely, 3-MA, wortmannin, or verteporfin. Control (DMSO) or other known autophagy inhibitors including 3-MA (10 mM), wortmannin (50 nM), and verteporfin (1 uM) were added to embryo water at 1 dpf for 24 hours. All embryos were injected by thsd1-MO and the hemorrhagic incidence was counted under microscope. For each injection, around 80-120 embryos were injected. *p<0.05, **p<0.01, n.s. means not significant.
After significant effort in contacting individuals and sequencing the families shown in FIG. 1A, the present disclosure first identified THSD1 as a gene associated with sub-cranial hemorrhage. In specific cases, a single codon substitution was identified as responsible for the phenotype L5F, R460W, E466G, G600E, P639L, T653I, or S775P. […]

Row | Compound | intracranial hemorrhage (hemorrhagic incidence counted under microscope)
1 | Verteporfin | rescued intracranial hemorrhage
2 | Cn1cnc(N)c2ncnc1-2 [3-MA, 3-Methyladenine] | rescued intracranial hemorrhage
